# In US20220186188A1, “Method for Obtaining Pancreatic Progenitor Cells and Pancreatic Islet Beta Cells By Means of Differentiation of Human Pluripotent Stem Cells” (Asia Regenerative Medicine, Ltd., priority 2019, published 2022):
# Columns and labels:
# [1] = tested on: pancreatic progenitor cells and pancreatic islet β cells differentiated from human embryonic stem cells; assay: Real-time fluorescence quantitative PCR of PDX1, NKX6-1 and INS mRNA (human embryonic stem cells); format: cell-based; details: qPCR
# Experimental: a pancreatic progenitor cell medium was prepared, the medium in step 1) was replaced with the pancreatic progenitor cell medium, and the cells were cultured in a carbon dioxide incubator at 37 degrees Celsius for 5 days, during which the medium was replaced every day, wherein the composition of the pancreatic progenitor cell medium was: with an MCDB131 medium as a basic medium, and the following components at the working concentrations were further included: 0.5% of bovine serum albumin (BSA), 1.5 g/L of sodium bicarbonate, 1×glutamine (GlutaMAX), 10 mM glucose, 0.25 M vitamin C, 1×insulin-transferrin-selenium-ethanolamine additive (ITS-X), 50 ng/ml of fibroblast growth factor 7 (KGF), 0.5 μM SANT1 (with smo as an inhibitor target), 100 nM retinoic acid (TTNPB), 500 nM phorbol 12,13-dibutyrate (PDBu), 2 μM ALK inhibitor (K02288), and 2 μM WNT signaling pathway inhibitor XAV-939 (not added in a control group), with the concentrations all being final concentrations.
# b. pancreatic islet β cell medium 2 was prepared, the pancreatic islet β cell medium 1 in above-mentioned step a was replaced with the pancreatic islet β cell medium 2, and the cells were cultured in a carbon dioxide incubator at 37 degrees Celsius for 5 days, during which the medium was replaced every day, wherein the composition of the pancreatic islet β cell medium 1 was: with an MCDB131 medium as a basic medium, and the following components at the working concentrations were further included: 20 mM glucose, 2% of bovine serum albumin (BSA), 1.5 g/L of sodium bicarbonate, 1×glutamine (GlutaMAX), 0.05 mM vitamin C, 1×insulin-transferrin-selenium-ethanolamine additive (ITS-X), 2 μM ALK inhibitor (K02288), 1 μM triiodothyronine (T3), 10 μM YO-01027 (Notch signaling pathway inhibitor), and 10 μM zinc sulfate, with the concentrations all being final concentrations; and the composition of the pancreatic islet β cell medium 2 was: with an MCDB131 medium as a basic medium, and the following components at the working concentrations were further included: 20 mM glucose, 2% of bovine serum albumin (BSA), 1.5 g/L of sodium bicarbonate, 1×glutamine (GlutaMAX), 0.05 mM vitamin C, 1×insulin-transferrin-selenium-ethanolamine additive (ITS-X), 1 μM triiodothyronine (T3), 10 μM Repsox (ALK5 inhibitor), 10 μM vitamin E, 10 μg/ml of heparin sodium, 2 μM R428 (Axl inhibitor), 10 μM zinc sulfate, and 10 mM N-acetyl-L-cysteine (N-cys), with the concentrations all being final concentrations.
# Cells cultured in a 24-well plate were collected, and washed twice with 500 μl of DPBS at first, then covered with 200 μl of chymotrypsin-trypsin (Trypsin), and placed at 37° C. for 5 minutes of digestion. Whether the cells float in pieces was observed, and the digestion was terminated using 500 μl of DMEM/F12 medium, then the product was centrifuged at 1000 rpm for 3 minutes, the supernatant was removed, and cell pellets were collected and added to a new RNase-free centrifuge tube. […]
# [2] = tested on: pancreatic progenitor cells and pancreatic islet β cells differentiated from human induced pluripotent stem cells; assay: Immunofluorescence detection of PDX1 and PDX1/INS proteins (human induced pluripotent stem cells); format: cell-based
# Description: […]
# [3] = 2 μM inhibitor in pancreatic progenitor cell stage, GAPDH reference
# [4] = 2 μM inhibitor in pancreatic progenitor cell stage
smiles,measurement,setting,value
Oc1nc(-c2ccc(C(F)(F)F)cc2)nc2c1CSCC2 [XAV-939],transcription level of the insulin gene INS in the mature pancreatic islet β cell stage,[1]; 2 μM inhibitor added in pancreatic progenitor cell stage,greatly increased
same,relative expression of mRNA of NKX6-1 in pancreatic progenitor cells,[1]; [3],significantly increased
same,relative expression of mRNA of PDX1 in pancreatic progenitor cells,[1]; [3],significantly increased
same,number of insulin INS-positive and PDX1-co-stained pancreatic islet β cells in the mature pancreatic islet β cell stage,"[2]; 2 μM inhibitor added in pancreatic progenitor cell stage, immunofluorescence",significantly increased
same,PDX1-positive pancreatic progenitor cells (immunofluorescence),[2]; [4],significantly increased
same,cell growth (total cell number by DAPI),[2]; [4],did not affect the cell growth
